From patent US20070161609A1, “Use of mitochondrially targeted antioxidant in treatment and prevention of drug-induced liver disease” (priority 2006, published 2007)
“Also recorded” adds a separate entry of the source. Where two headings read alike, the source gives them in different places.

Tests used:
[1] = cited from earlier work; for safety of long term feeding to mice: long term basis, potentially therapeutically effective concentrations within brain, heart, liver, muscle; for gross signs of toxicity: fed in drinking water two or three days, 500 μM or 1 mM MitoQ or MitoS, 500 μM MitoVit E
[2] = tested on: carprofen- and DDC-intoxicated mice livers; experiment: Hepatocyte damage in mouse liver upon 3 days exposure to carprofen in combination with DDC (histology); assay type: in vivo; details: carprofen 5 mg/kg + DDC 0.1% in diet, MitoQ 300 nmol/animal in PBS/1% DMSO
Text: Controls receive 300 μPBS only.

[3] = tested on: mice intoxicated with valproic acid; experiment: Long term (three weeks) valproic acid intoxication, liver histology; assay type: in vivo, mouse; details: valproic acid 0.71% weight/volume for three weeks; 1.25 mg/kg daily i.p. or i.v.; compared to controls
Method: Chronic liver damage can be assessed in mice intoxicated with valproate (0.71% weight/volume) for up to 21 days when fatty degeneration of hepatocytes, activation of Kupffer cells, inflammation and hepatocyte necrosis can be detected (Raza M. 2000, Int J Tissue React., 22(1): 15-21).
In long term experiments by using mice intoxicated for three weeks with valproic acid (0.71% weight/volume), the presence (or absence) of cell damage in liver samples of treated animals is determined and compared to the corresponding control groups of animals.

hemoxygenase 1 (HO-1) = experiment: Western blot of hemoxygenase 1 expression in liver extracts of intoxicated mice; assay type: in vivo, mouse; details: densitometry
Method: To evaluate hemoxygenase 1 (HO-1) protein expression know to be induced by oxidative stress (Suematsu M. and Ishimura Y., 2000, Hepatology, 31(1): 3-6) standard western blot analysis is performed using protein extracts derived from paracetamol- (or carprofen) intoxicated mice treated simultaneously for 1day (or 3 days) with MitoQ (diluted in 1% DMSO in PBS), vitamin E or just vehicle itself (see protocols in Example 3).
(§1) Liver tissues are resuspended in ice-cold RIPA-buffer (50 mM Tris-HCl pH 7.4, 250 mM NaCl, 0.1% SDS, 1% deoxycholate, 1% NP-40) supplemented with 2 μg/ml leupeptin, 2 μg/ml pepstatin, 2 μg/ml aprotinin, 1 mM phenylmethylsulfonylfluoride (PMSF), and 2 mM dithiothreitol followed by homogenization through sonication (2 bursts of 5 seconds) on ice. After incubation for 20 minutes on ice, the lysates are cleared by two centrifugational steps in a microcentrifuge at 13,000 rpm for 15 minutes at 4° C. and the supernatants are collected. Protein concentrations are determined by the Bradford assay (Biorad) using bovine serum albumin as a standard. Equal amounts of protein (typically 10-30 μg) are separated on a 12% SDS-PAGE gel and transferred electrophoretically to a polyvinylidene diflouride (PVDF) membrane (Hybond-P, Amersham) through Semidry-blotting (TE 70, Amersham). […]

[4] = tested on: fatty acid binding protein (FABP); experiment: Western blot of fatty acid binding protein in liver extracts of intoxicated mice; assay type: in vivo, mouse; details: drug-intoxicated (paracetamol or carprofen) animals; versus non intoxicated vehicle controls
Method: as §1, with “Amersham). The membrane is blocked for 1 hour at room temperature in blocking solution [5% milk in TBS-T (25 mM Tris-HCl pH 7.4, 137 mM NaCl, 3 mM KCl, comprising 0.1% Tween-20)] and incubated with the primary antibody solution (prepared in TBS-T/1% milk) at 4° C. overnight with agitation.” for “Amersham).”
Furthermore, the protein expression level(s) of fatty acid binding protein (FABP) representing a sensitive marker for hepatocyte damage (Monbaliu D. et al., 2005, Transplant Proc. 37(1):413-416) is determined.

[5] = tested on: alanine- and aspartate aminotransferase; experiment: Serum liver enzymes (blood parameters) in intoxicated animals; assay type: in vivo, mouse; details: compared to intoxicated control group
[6] = tested on: immortalized hepatocytes (Fa2N-4 or Ea1C-35); experiment: Reactive oxygen species in immortalized hepatocytes; assay type: cell-based; details: for ROS formation: hepatocytes intoxicated with e.g. paracetamol (10 mM for 2 hours), DDC or BSO, simultaneous treatment at EC50 concentrations
Method: Tested hepatocytes are grown in 96-well plates in culture medium (DMEM supplemented with 10% FCS, Gibco) to 80% confluency in the presence of paracetamol, subsequently washed with HBSS and incubated in the dark with DHE (10-50 μM) for 10 minutes at 37° C. Cells are then washed twice with Hank's balanced salt solution (HBSS, Gibco) to remove excess dye. Fluorescence is monitored in a fluorescence microscope (Olympus, Hamburg, Germany).
To determineDCF fluorescence in a microplate reader (Tecan, Crailsheim, Germany), immortalized hepatocytes are grown in 96-well plates to 80% confluency in presence of paracetamol. The cells are then washed twice with Hank's balanced salt solution (HBSS, Gibco) and incubated in the dark with CM-H2DCFDA (8.5 μM) dissolved in HBSS containing N-co-nitro-L-arginine methyl ester (L-NAME, 10 μM) for 10 minutes at 37° C. to prevent the formation of NO. After several washes with HBSS to remove excess dye, fluorescence is monitored by using 480 nm excitation and 540 nm emission wavelength. DCF fluorescence is standardized to the number of viable cells using the Alamar Blue test according to the manufacturer's instructions (Biosource, Nivelles, Belgium). […] The absorbance is then measured at the wavelength of 580 nm.
Optionally, ROS production can be assessed by flow cytometric analysis of CM-H2DCFDA stained cells. The cells intoxicated with paracetamol are detached and harvested by trypsinisation, collected by centrifugation and resuspended in HBSS at a concentration of 1×10^6 cells/ml. Cells are then loaded with 8.5 μM CM-H2DCFDA for 15 minutes in the dark at 37° C. before stimulation. The DCF fluorescence is monitored by analyzing 10,000 cells using 480 nm excitation and 540 nm emission wavelengths in a flow cytometer (Partec, Muenster, Germany).
The hepatocytes are then washed once with HBSS (Hanks' Balanced Salt Solution, Gibco) and incubated with MitoQ in concentration range of 0.5 to 10 μM or the respective amount of DMSO (Sigma). After 15 min DCF is added to the cells (final concentration of 8 μM) and cells are incubated with the dye for 10 min. After loading the media is removed and fresh HBSS is added containing MitoQ and CoCl2 (100 μM).
After 3 subsequent washing the cells are equilibrated in plates containing 1 ml of 50 mmol/L HEPES (pH 7.4), 135 mmol/L NaCl, 1 mmol/L CaCl2, 1 mmol/L MgCl2, 5 mmol/L KCl, 5.5 mmol/L glucose, and 5 μmol/L lucigenin as the electron acceptor. The light reaction between superoxide and lucigenin is detected using a chemiluminescence reader (Lumistar, BMG laboratories, Germany). The chemiluminescence signal is expressed as average counts per minute and normalized to cell number as determined by cell counter (Casy Technology Instrument, Schärfe-System, Germany).

[7] = tested on: mitochondria within isolated cells; details: in vitro; cited from earlier work
[8] = tested on: paracetamol-intoxicated mice livers
Method: Mice (8 weeks old) are fed a standard diet. Paracetamol is administered by oral gavage (500 mg/kg of animal). Carprofen is given by intraperitoneal injection (three times every 24 hours) in combination with 0.1% DDC which is included in the diet.
Mice are sacrified at different time-points of intoxication by cervical dislocation and the livers are either immediately snap-frozen in methylbutane precooled with liquid nitrogen for immunofluorescence or fixed in 4% buffered formaldehyde for routine histology and immunohistochemistry.
To evaluate the impact of the antioxidants according to the invention on regression of morphological alterations in early stages of paracetamol-intoxicated mice livers, a group of animals are treated on day one with MitoQ (a mixture of MitoQuinol [10-(3,6-dihydroxy-4,5-dimethoxy-2 methylphenyl)decyl]triphenylphosphonium bromide and MitoQuinone [10-(4,5-dimethoxy-2-methyl-3,6-dioxo-1,4-cyclohexadien-1-yl)decyl]-triphenylphosphonium bromide (provided by Prof. Albin Hermetter, TU Graz, AT), diluted with PBS/1% DMSO in three different concentrations (200 nM, 300 nM and 400 nM) intraperitoneally with maximum administration volume 100 μl (controls receive 100 μl PBS/1% DMSO only). For injections, MitoQ is dissolved in PBS supplemented with sufficient DMSO (preferably 1%) to maintain solubility of antioxidants. Intraperitoneal or i.v. (tail vein) injections are given to pairs of mice and compared with vehicle-injected controls. These correspond to maximum tolerated dose of 20 mg of MitoQ/kg/day (750 nmol) according to Smith R. A. J et al., 2003, PNAS, 100 (9): 5407-5412.
On the second day MitoQ treatment is continued, additionally mice are intoxicated with 500 mg/kg paracetamol diluted with PBS po (maximum administration volume is 300 μl).

[9] = tested on: DDC-intoxicated mouse liver; experiment: Hepatocyte damage in mouse liver upon 3 days exposure to DDC (0.1%), MitoQ versus vitamin E (histology); details: MitoQ 12 mg/kg peritoneally, vitamin E 100 mg/kg subcutaneously
Method: FIGS. 3a and 3b: Comparison of MitoQ (12 mg/kg of animal;given peritoneally) and vitamin E (100 mg/kg of animal, applied subcutneously) effect on the degree of hepatocyte damage in mouse liver upon short term (3 days) exposure to DDC (0.1%)
Controls receive 300 μPBS only. Vitamin E is given subcutaneously in the same intervals as MitoQ at doses of 40 to 100 mg/kg dissolved in corn oil/PBS (1:5).

[10] = concentration used for treatment of intoxicated immortalized hepatocytes, read-out: EC50
[11] = paracetamol 500 mg/kg, 1 day, MitoQ 300 nmol/animal in PBS/1% DMSO, simultaneous, 24 hours pretreatment

Compound	safety of long term feeding to mice [1]	reduction of liver damage by serum liver enzymes (alanine- and aspartate aminotransferase) [5]	EC50 [6, 10] [µM]	ROS formation [6]	accumulation by mitochondria [7]	gross signs of toxicity [1]	inflammatory cells [9]	liver morphology [9]	protoporphyrin accumulation in the bile ducts [9]	other results
C[P+](c1ccccc1)(c1ccccc1)c1ccccc1 [TPMP, reference compound]	could be fed safely									
MitoQ	could be fed safely	significant reduction	1	significant reduction	rapidly and selectively accumulated	without any gross signs of toxicity	absent	restores normal liver morphology	persists	inflammatory cells [2]: absent; liver morphology [2]: restores normal liver morpohology; degree of cell damage [3]: greatly reduced; HO-1 protein expression (hemoxygenase 1 (HO-1); compared to paracetamol intoxicated group of animals): significant reduction; HO-1 protein expression (hemoxygenase 1 (HO-1); compared to vitamin E treated mice): less significant reduction; FABP protein expression [4]: reaches almost control mice FABP protein expression values; also recorded: reach almost control mice FABP expression values; blood congestion in the sinusoids [8, 11]: reduces blood congestion in the sinusoids; necrotic hepatocytes [8, 11]: only few single necrotic cells are seen; liver architecture (strands of hepatocytes bordered by sinusoids) ([8]; short-term experiments overall (paracetamol; carprofen + DDC), compared to vitamin E or untreated animals): is again visible
vitamin E [reference compound]		less significant effect	10	significant reduction			still present in the periportal area	only partially restores normal liver morphology	persists	
CCOC(=O)C1=C(C)NC(C)=C(C(=O)OCC)C1C [DDC]										EC50 ([6]; intoxicant, hepatocytes incubated up to 72 hours in culture medium (DMEM and 10% FCS)): 50 μg/ml of medium
Cc1c(C)c2c(c(C)c1O)CCC(C)(CC[P+](c1ccccc1)(c1ccccc1)c1ccccc1)O2 (stereo not drawn) [MitoVit E, [2-(3,4-dihydro-6-hydroxy-2,5,7,8-tetramethyl-2H-1-benzopyran-2-yl)ethyl]-triphenylphosphonium bromide]	could be fed safely				rapidly and selectively accumulated	without any gross signs of toxicity				maximum tolerated dose ([1]; 500 μM in drinking water): 60 mg/kg/day
